Experimental data from publication PMC13336041, “Streptavidins Coordinate Biotin Sequestration and Self‐Resistance Within a Biotin‐Pathway Antibiotic Network” (Advanced Science, 2026).

Experiments:
[1] = molecular target: streptavidin 2 (Sav2), residues 45-169 (S. avidinii); experiment: not stated; in solution; method not given
BioA (EcBioA) = BioA (EcBioA) (Escherichia coli, UniProt P12995); experiment: BioA-BioD coupled enzyme assay with KAPA as substrate, LC-MS readout of desthiobiotin (IC50 […]); type: biochemical
[2] = molecular target: BioA derived from S. lydicus (SlBioA); experiment: BioA-BioD coupled enzyme assay with KAPA as substrate, LC-MS readout; type: biochemical, Streptomyces lydicus

Sequence of BioA (EcBioA) (P12995 whole entry): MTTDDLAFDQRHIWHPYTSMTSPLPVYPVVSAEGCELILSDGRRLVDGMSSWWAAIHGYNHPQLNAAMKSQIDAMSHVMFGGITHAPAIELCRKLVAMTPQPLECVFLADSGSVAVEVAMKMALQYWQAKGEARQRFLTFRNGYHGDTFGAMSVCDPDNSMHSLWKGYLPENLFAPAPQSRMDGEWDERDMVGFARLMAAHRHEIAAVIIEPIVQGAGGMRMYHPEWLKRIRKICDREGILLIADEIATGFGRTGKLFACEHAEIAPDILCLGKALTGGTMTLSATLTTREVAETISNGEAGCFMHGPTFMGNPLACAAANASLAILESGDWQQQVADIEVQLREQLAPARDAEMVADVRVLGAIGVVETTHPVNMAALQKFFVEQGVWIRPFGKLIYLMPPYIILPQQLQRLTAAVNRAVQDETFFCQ

Compound | stoichiometry N [1] | Ki (BioA (EcBioA)) [µM] | IC50 [2] [µM]
streptavidin 2 (Sav2), residues 45-169 (domain or fragment) | 4 |  | 
C[C@H](N)C(=O)CCCC[C@@H](C)C(=O)O [compound 5, α-methyl-KAPA] |  | 14.9 | 6.5
